Like-named read-outs stand apart in the source and are kept apart here.
How the values were obtained:
[1] = system: SMN2 minigene (full length SMN2 minigene mRNA containing SMN2 exon 7); test: SMN2 minigene mRNA splicing RT-qPCR assay in cultured cells; assay type: cell-based, human; settings: Homo sapiens, HEK293-H, read-out: EC1.5x for production of full length SMN2 mRNA
How it was run: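 HEK293H cells stably carrying the SMN2-A minigene treated 24 h at 37° C with compound (DMSO, 200× stock), then lysed. Multiplex RT-qPCR (SMN primers 0.4 μM final; 40 cycles) measures full-length exon 7-containing minigene mRNA, normalized to GAPDH and to vehicle; EC1.5x derived and binned by stars.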

[2] = system: Smn protein; test: Smn protein assay in cultured cells (SMN HTRF); assay type: cell-based, human; settings: 48 hours; for maximum fold (Fold) increase of Smn protein: SMA patient fibroblast cells, 7-point concentration data, fold increase relative to vehicle control (SMN HTRF); for EC1.5x (concentration giving 1.5-fold Smn protein increase): SMA Type 1 patient fibroblast cells (GM03813), 7-point concentration curve, SMN HTRF, concentration producing 1.5 times Smn protein vs DMSO vehicle control, read-out: EC1.5x for Smn protein expression
How it was run: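 Lysates in RIPA with protease inhibitors are incubated overnight at room temperature with HTRF anti-SMN antibodies. EC1.5x is derived from fold increase in ΔF over vehicle.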

[3] = HEK293H cells stably transfected with SMN2-A minigene, 24 hours, 7-point concentration curve, 1.5-fold relative to vehicle-treated cells

SMILES	EC (1.5-fold) ([1]; 24 h)	maximum fold (Fold) increase of Smn protein [2]	melting point	EC (1.5-fold) [1, 3]	EC1.5x (concentration giving 1.5-fold Smn protein increase) [2]
O=C(Oc1ccc2cc(-c3nc4c(Cl)cccc4s3)c(=O)oc2c1)N1CCNCC1 [Cpd 42, 3-(4-chloro-1,3-benzothiazol-2-yl)-2-oxo-2H-chromen-7-yl piperazine-1-carboxylate]	1 to 3 µM	* (maximum fold increase of ≤1.2)	236 to 239 °C		
CN1CCN(c2cc(F)c3cc(-c4nc5c(F)cccc5o4)c(=O)oc3c2)CC1 [Compound 366, 5-fluoro-3-(4-fluoro-1,3-benzoxazol-2-yl)-7-(4-methylpiperazin-1-yl)-2H-chromen-2-one]		** (fold increase between >1.2 and ≤1.35)	256 to 260 °C	0.3 to 1 µM	
C[C@H]1CN(c2ccc3cc(-c4cn5cccc(F)c5n4)c(=O)oc3c2)CCN1 [Compound 525, 3-(8-fluoroimidazo[1,2-a]pyridin-2-yl)-7-[(3S)-3-methylpiperazin-1-yl]-2H-chromen-2-one]		*** (fold increase between >1.35 and ≤1.5)	190 to 193 °C	0.1 to 0.3 µM	
Cc1cn2cc(-c3cc4ccc(N5CCCN(C(C)C)CC5)cc4oc3=O)cc2c(C)n1 [Compound 754, 3-(1,3-dimethylpyrrolo[1,2-a]pyrazin-7-yl)-7-[4-(propan-2-yl)-1,4-diazepan-1-yl]-2H-chromen-2-one]		*** (fold increase between >1.35 and ≤1.5)	115 to 118 °C	< 0.1 µM	
Cc1ccn2cc(-c3cc4ccc(N5C[C@H]6CC[C@@H](C5)N6C)cc4oc3=O)nc2c1 [Compound 535, 7-[(1R,5S)-8-methyl-3,8-diazabicyclo[3.2.1]oct-3-yl]-3-(7-methylimidazo[1,2-a]pyridin-2-yl)-2H-chromen-2-one]	1 to 3 µM	* (maximum fold increase of ≤1.2)	224 to 229 °C		
O=c1oc2cc(N3CCN4CCCCC4C3)ccc2cc1-c1cn2cccc(F)c2n1 (centres unmarked) [Compound 578, 3-(8-fluoroimidazo[1,2-a]pyridin-2-yl)-7-(octahydro-2H-pyrido[1,2-a]pyrazin-2-yl)-2H-chromen-2-one]		* (maximum fold increase of ≤1.2)	230 to 233 °C	1 to 3 µM	
O=c1oc2cc(N3CCNCC3)cc(F)c2cc1-c1nc2ccccc2o1 [Compound 159, 3-(1,3-benzoxazol-2-yl)-5-fluoro-7-(piperazin-1-yl)-2H-chromen-2-one]		*** (fold increase between >1.35 and ≤1.5)	245 to 250 °C	0.3 to 1 µM	
Cc1cc2cc(-c3cc4ccc(N5CCN(C)[C@H](C)C5)cc4oc3=O)oc2c(C)n1 [Compound 807, 3-(5,7-dimethylfuro[2,3-c]pyridin-2-yl)-7-[(3R)-3,4-dimethylpiperazin-1-yl]-2H-chromen-2-one]		***** (fold increase >1.65)	199 to 204 °C	< 0.1 µM	< 300 nM
Cc1cn2cc(-c3cc4ccc(N5CCN6CCC[C@H]6C5)cc4oc3=O)ccc2n1 [Cpd 651, 7-[(8aS)-hexahydropyrrolo[1,2-a]pyrazin-2(1H)-yl]-3-(2-methylimidazo[1,2-a]pyridin-6-yl)-2H-chromen-2-one]		*** (fold increase between >1.35 and ≤1.5)	231 to 233 °C	< 0.1 µM	< 300 nM
O=c1oc2cc(N3CCNCC3)cc(F)c2cc1-c1nc2c(F)cccc2o1 [Compound 292, 5-fluoro-3-(4-fluoro-1,3-benzoxazol-2-yl)-7-(piperazin-1-yl)-2H-chromen-2-one]		*** (fold increase between >1.35 and ≤1.5)	225 to 230 °C	0.3 to 1 µM	
Cc1cn2cc(-c3cc4ccc(N5CCN6CCC[C@H]6C5)cc4oc3=O)cc2c(C)n1 [Compound 673, 3-(1,3-dimethylpyrrolo[1,2-a]pyrazin-7-yl)-7-[(8aS)-hexahydropyrrolo[1,2-a]pyrazin-2(1H)-yl]-2H-chromen-2-one]		***** (fold increase >1.65)	169 to 173 °C	< 0.1 µM	< 300 nM
Cc1cn2cc(-c3cc4ccc(N(C)C5CCN(C)C5)cc4oc3=O)nc2c(C)n1 (centres unmarked) [Compound 615, 3-(6,8-dimethylimidazo[1,2-a]pyrazin-2-yl)-7-[methyl(1-methylpyrrolidin-3-yl)amino]-2H-chromen-2-one]		**** (fold increase between >1.5 and ≤1.65)	182 to 184 °C	< 0.1 µM	< 300 nM
Cc1cn2cc(-c3cc4ccc(N5C[C@H]6CCN(C)[C@H]6C5)cc4oc3=O)nc2c(C)n1 [Compound 704, 3-(6,8-dimethylimidazo[1,2-a]pyrazin-2-yl)-7-[(3aR,6aR)-1-methylhexahydropyrrolo[3,4-b]pyrrol-5(1H)-yl]-2H-chromen-2-one]		**** (fold increase between >1.5 and ≤1.65)	255 to 263 °C	< 0.1 µM	< 300 nM
Cc1cn2cc(-c3cc4ccc(OCCN(CCO)CCO)cc4oc3=O)nc2c(C)n1 [Compound 896, 7-{2-[bis(2-hydroxyethyl)amino]ethoxy}-3-(6,8-dimethylimidazo[1,2-a]pyrazin-2-yl)-2H-chromen-2-one]		***** (fold increase >1.65)	199 to 202 °C	< 0.1 µM	< 300 nM
C[C@H]1CN(c2ccc3cc(-c4cn5cccc(Cl)c5n4)c(=O)oc3c2)CCN1C [Compound 339, 3-(8-chloroimidazo[1,2-a]pyridin-2-yl)-7-[(3S)-3,4-dimethylpiperazin-1-yl]-2H-chromen-2-one]		* (maximum fold increase of ≤1.2)	184 to 186 °C	0.1 to 0.3 µM	
O=c1oc2cc(N3CCNCC3)ccc2cc1-c1ccc(F)c(Cl)c1 [Compound 484, 3-(3-chloro-4-fluorophenyl)-7-(piperazin-1-yl)-2H-chromen-2-one]		* (maximum fold increase of ≤1.2)	186 to 188 °C	0.3 to 1 µM	
C[C@@H]1CN(c2ccc3cc(-c4cnc5ccccc5n4)c(=O)oc3c2)C[C@H](C)N1 [Compound 461, 7-[(3R,5S)-3,5-dimethylpiperazin-1-yl]-3-(quinoxalin-2-yl)-2H-chromen-2-one]		* (maximum fold increase of ≤1.2)	234 to 236 °C	3 to 30 µM	
Cc1cn2cc(-c3cc4ccc(N5CCCNCC5)cc4oc3=O)nc2c(C(F)(F)F)n1 [Cpd 607, 7-(1,4-diazepan-1-yl)-3-[6-methyl-8-(trifluoromethyl)imidazo[1,2-a]pyrazin-2-yl]-2H-chromen-2-one]		*** (fold increase between >1.35 and ≤1.5)	> 300 °C	< 0.1 µM	300 to 1000 nM
COCCNCCCc1ccc2cc(-c3cn4cc(C)nc(C)c4n3)c(=O)oc2c1 [Compound 931, 3-(6,8-dimethylimidazo[1,2-a]pyrazin-2-yl)-7-{3-[(2-methoxyethyl)amino]propyl}-2H-chromen-2-one]		**** (fold increase between >1.5 and ≤1.65)	147 to 150 °C	< 0.1 µM	300 to 1000 nM
CCOc1cccc(-c2cc3ccc(N4CCN(C)CC4)cc3oc2=O)n1 [Compound 381, 3-(6-ethoxypyridin-2-yl)-7-(4-methylpiperazin-1-yl)-2H-chromen-2-one]		* (maximum fold increase of ≤1.2)	170 to 172 °C	1 to 3 µM	
Cc1ccc2nc(-c3cc4ccc(N5C[C@@H](C)N[C@@H](C)C5)cc4oc3=O)cn2c1 [Compound 174, 7-[(3R,5S)-3,5-dimethylpiperazin-1-yl]-3-(6-methylimidazo[1,2-a]pyridin-2-yl)-2H-chromen-2-one]		*** (fold increase between >1.35 and ≤1.5)	235 to 237 °C	< 0.1 µM	
Cc1nn2cc(-c3cc4ccc(N5CCN(C)CC5)cc4oc3=O)nc2s1 [Compound 442, 3-(2-methylimidazo[2,1-b][1,3,4]thiadiazol-6-yl)-7-(4-methylpiperazin-1-yl)-2H-chromen-2-one]		** (fold increase between >1.2 and ≤1.35)	233 to 236 °C	3 to 30 µM	
CN1CCCN(c2cc(F)c3cc(-c4cc(F)cc(F)c4)c(=O)oc3c2)CC1 [Compound 365, 3-(3,5-difluorophenyl)-5-fluoro-7-(4-methyl-1,4-diazepan-1-yl)-2H-chromen-2-one]		* (maximum fold increase of ≤1.2)	161 to 164 °C	1 to 3 µM	
O=c1oc2cc(N3CCNCC3)ccc2cc1-c1cccs1 [Compound 363, 7-(piperazin-1-yl)-3-(thiophen-2-yl)-2H-chromen-2-one]	1 to 3 µM	** (fold increase between >1.2 and ≤1.35)	193 to 195 °C		
